Activity calls are given as the source filed them.
Legend:
[1] = biological target: Eukaryotic translation initiation factor 4E (Mus musculus, UniProt P63073); assay: blockers of eIF4G binding by eIF4E – biochemical, TR-FRET, dose response (AID 855); type: functional;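 note: potency for disrupting eIF4E binding to eIF4GI seen as loss of FRET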
[2] = test system: P388/ADR; assay: cells; type: functional
[3] = test system: SN12K1; assay: cells; type: functional; conditions: Homo sapiens
[4] = biological target: Cytochrome P450 2D6 (Homo sapiens, UniProt P10635);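 note: CYP2D6 member of a cytochrome P450 panel assay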
[5] = biological target: Ras and Rab interactor 1/Tyrosine-protein kinase ABL1 (Homo sapiens, UniProt P00519+Q13671); type: functional;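 note: biochemical TR-FRET dose-response test measuring inhibition of binding between Rin1 and Abl proteins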
[6] = biological target: T1, Polyadenylate-binding protein 1 (Homo sapiens, UniProt P11940); assay: MLLE binding blockers, Cy5 peptide tracer – biochemical, fluorescence polarization, Cy5-PAM2 peptide, secondary, miRNA deadenylation inhibitor project, dose response (AID 602260); type: functional; conditions: read-out: IC50_Mean
[7] = biological target: T1, Polyadenylate-binding protein 1; assay: MLLE domain peptide-binding blockers, IC50 – biochemical, fluorescence polarization, FITC-PAM2 peptide, dose response (AID 602259); type: functional; conditions: read-out: IC50_Mean
[8] = biological target: Voltage-dependent T-type calcium channel subunit alpha-1H (Homo sapiens, UniProt O95180); type: functional;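 note: channel activity triggered by adding a high calcium stimulation buffer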
[9] = Luminescence Cell-Based Dose Confirmation HTS to Identify Activators of 5'UTR Stem-Loop Driven Alpha-Synuclein mRNA Translation in H4 Neuroglioblastoma Cells. [Related pubchem assays: 1829 (Project Summary), 1814 (Primary HTS)]; type: functional
[10] = Luminescence Cell-Based Dose Response HTS to Identify Activators of Luciferase Translation or Activity in H4 […] Cells. [Related pubchem assays: 1829 (Project Summary), 1814 (Primary HTS)]; type: functional
[11] = test system: H4; assay: Luminescence Cell-Based Dose Response HTS to Identify Activators of 5'UTR Stem-Loop Driven Prion Protein mRNA Translation in H4 Neuroglioblastoma Cells. [Related pubchem assays: 1829 (Project Summary), 1814 (Primary HTS)]; type: functional; conditions: Homo sapiens
[12] = cells; type: functional, cell-based
[13] = cells; type: functional, cell-based; remark: listed apart in the source
[14] = biological target: Glucose-6-phosphate 1-dehydrogenase (Homo sapiens, UniProt P11413); assay: inhibition of Homo sapiens G6PD, dose series – biochemical, fluorescence, selectivity assay for P. falciparum G6PD inhibitor project, dose response (AID 504792); type: functional
[15] = microbe, parasite or virus in culture; type: functional; conditions: Mycobacterium tuberculosis
[16] = blockers of HIV-1 ZM109 envelope-driven cell-cell fusion – HeLa effector, CEM target cells, luciferase, cherry-pick, dose response (AID 652058); type: functional, cell-based;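 note: luciferase signal from HIV-1 Env mediated cell-cell fusion of effector and target cells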
[17] = HIV-1 AD8 envelope cell-cell fusion blockers – cherry-pick, dose response (AID 652062); type: functional, cell-based;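 note: luciferase signal from cell-cell fusion driven by HIV-1 clade B AD8 Env; potency is for inhibitors of fusion seen as a drop in luminescence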
[18] = biological target: Induced myeloid leukemia cell differentiation protein Mcl-1 (Homo sapiens, UniProt Q07820); type: functional
[19] = test system: HEK293; assay: inhibition of NOD1-driven NF-kB reporter – cell-based, luminescence, uHTS, primary screen (AID 1578); type: functional; conditions: Homo sapiens
[20] = test system: HEK293; assay: cells; type: functional, cell-based; conditions: Homo sapiens
[21] = test system: HEK293; assay: cells; type: functional, cell-based; conditions: Homo sapiens; remark: listed apart in the source
[22] = test system: HEK293; assay: NOD2 signaling inhibitors in MDP-stimulated cells, cell-based, uHTS, luminescence (AID 2001); type: functional; conditions: Homo sapiens
[23] = biological target: Nonstructural protein 1 (Influenza A virus, UniProt Q194T2); type: functional, Influenza A virus (A/California/07/2009(H1N1))
[24] = test system: HEK293; assay: EBV LMP1 TES2 canonical NF-kB signalling blockers – cell-based, HEK293, luciferase, cherry-pick, dose response (AID 588343); type: functional; conditions: Homo sapiens
[25] = biological target: T2, Corticotropin-releasing factor receptor 2/Corticotropin-releasing factor-binding protein (Homo sapiens, UniProt P24387+Q13324); assay: Dose Response confirmation of uHTS hits for small molecule antagonists of the CRF-binding protein and CRF-R2 receptor complex.; type: functional; conditions: read-out: IC50_Mean
T2 sequence (Q13324 whole entry): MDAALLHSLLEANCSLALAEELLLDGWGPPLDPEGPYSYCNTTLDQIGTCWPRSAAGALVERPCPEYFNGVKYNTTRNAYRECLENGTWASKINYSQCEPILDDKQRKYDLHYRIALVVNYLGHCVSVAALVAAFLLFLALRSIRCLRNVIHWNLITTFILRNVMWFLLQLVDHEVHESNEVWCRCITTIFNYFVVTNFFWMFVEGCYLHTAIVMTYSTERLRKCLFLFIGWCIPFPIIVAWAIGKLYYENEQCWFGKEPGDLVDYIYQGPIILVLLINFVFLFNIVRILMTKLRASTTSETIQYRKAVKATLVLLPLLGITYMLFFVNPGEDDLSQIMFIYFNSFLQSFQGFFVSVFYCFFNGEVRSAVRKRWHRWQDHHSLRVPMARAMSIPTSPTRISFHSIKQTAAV
T2 sequence (P24387 whole entry): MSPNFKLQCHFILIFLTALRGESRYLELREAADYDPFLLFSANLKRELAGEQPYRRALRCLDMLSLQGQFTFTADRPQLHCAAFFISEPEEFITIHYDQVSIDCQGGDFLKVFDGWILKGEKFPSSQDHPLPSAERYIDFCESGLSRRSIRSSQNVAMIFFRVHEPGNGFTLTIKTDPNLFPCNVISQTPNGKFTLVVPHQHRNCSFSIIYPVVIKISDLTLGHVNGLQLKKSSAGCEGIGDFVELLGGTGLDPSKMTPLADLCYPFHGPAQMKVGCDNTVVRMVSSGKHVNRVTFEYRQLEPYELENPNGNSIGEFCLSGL

[26] = biological target: T2, Corticotropin-releasing factor receptor 2/Corticotropin-releasing factor-binding protein; assay: activators of CRF receptor 2 with binding protein – uHTS hits, confirmation (AID 602473); type: functional; conditions: read-out: EC50_Mean
[27] = blockers of HIV-1 envelope-mediated cell-cell fusion – cherry-pick, dose response (AID 652057); type: functional, cell-based
[28] = reduction of Shn3 3'UTR-driven luciferase in osteoblasts – cell-based, Clone20 osteoblasts, firefly luciferase, cherry-picked, dose response (AID 624132); type: functional;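 note: firefly luciferase luminescence from reporter carrying the Shn3 3'UTR in osteoblasts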
[29] = non-specific 3'UTR reporter inhibition in Clone20-Shn3RL – cell-based, Renilla luciferase, cherry-picked, counter-screen for Shn3 inhibitor project, dose response (AID 624133); type: functional
[30] = biological target: FAD-linked sulfhydryl oxidase ALR (Homo sapiens, UniProt P55789); assay: ALR-catalysed DTT oxidation blockers – biochemical, H2O2 detection, luminescence, cherry-pick, dose response (AID 493248)
[31] = biological target: Paired box protein Pax-8 (Homo sapiens, UniProt Q06710); assay: PAX8 transcriptional activity inhibition in RMG-I – RMG-I cells, luciferase, cherry-pick, dose response (AID 687027); type: functional, cell-based;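 note: luciferase reporter driven by Pax8 target thyroperoxidase promoter measured by SteadyGlo luminescence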
[32] = OVCAR8 cell viability loss – plate reader, dry powder samples, PAX8 project, dose response (AID 743197); type: functional, cell-based; conditions: OVCAR-8

Chain of Eukaryotic translation initiation factor 4E (P63073 whole entry): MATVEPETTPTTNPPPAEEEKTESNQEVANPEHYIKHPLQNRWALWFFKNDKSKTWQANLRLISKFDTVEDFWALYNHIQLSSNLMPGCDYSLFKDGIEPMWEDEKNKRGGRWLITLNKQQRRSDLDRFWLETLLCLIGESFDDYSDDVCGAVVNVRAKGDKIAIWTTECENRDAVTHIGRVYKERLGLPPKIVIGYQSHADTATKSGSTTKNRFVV
Chain of Induced myeloid leukemia cell differentiation protein Mcl-1 (Q07820 whole entry): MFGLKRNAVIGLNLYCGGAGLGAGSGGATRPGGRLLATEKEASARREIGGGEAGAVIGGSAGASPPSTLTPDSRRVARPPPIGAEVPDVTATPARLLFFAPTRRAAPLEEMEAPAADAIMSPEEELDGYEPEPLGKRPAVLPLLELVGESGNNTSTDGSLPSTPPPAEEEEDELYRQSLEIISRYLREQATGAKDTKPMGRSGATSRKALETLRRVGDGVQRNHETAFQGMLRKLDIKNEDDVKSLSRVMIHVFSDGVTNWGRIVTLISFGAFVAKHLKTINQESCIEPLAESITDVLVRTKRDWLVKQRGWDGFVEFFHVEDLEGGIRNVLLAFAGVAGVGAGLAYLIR
Chain of Glucose-6-phosphate 1-dehydrogenase (P11413 whole entry): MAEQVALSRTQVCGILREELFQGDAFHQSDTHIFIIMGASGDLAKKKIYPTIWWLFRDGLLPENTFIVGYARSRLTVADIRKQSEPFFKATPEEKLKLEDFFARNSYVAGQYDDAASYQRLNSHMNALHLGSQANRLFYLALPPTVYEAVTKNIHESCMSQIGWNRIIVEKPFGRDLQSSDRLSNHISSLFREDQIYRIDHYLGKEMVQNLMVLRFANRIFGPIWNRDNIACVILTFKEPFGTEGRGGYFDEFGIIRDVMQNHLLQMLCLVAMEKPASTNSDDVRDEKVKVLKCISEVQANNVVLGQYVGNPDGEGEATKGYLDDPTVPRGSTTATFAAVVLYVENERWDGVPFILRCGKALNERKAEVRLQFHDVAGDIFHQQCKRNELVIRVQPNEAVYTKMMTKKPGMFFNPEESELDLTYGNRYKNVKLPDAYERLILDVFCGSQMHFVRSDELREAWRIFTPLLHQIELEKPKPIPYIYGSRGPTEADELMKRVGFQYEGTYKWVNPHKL
T1 sequence (P11940 whole entry, the tested form may be a part): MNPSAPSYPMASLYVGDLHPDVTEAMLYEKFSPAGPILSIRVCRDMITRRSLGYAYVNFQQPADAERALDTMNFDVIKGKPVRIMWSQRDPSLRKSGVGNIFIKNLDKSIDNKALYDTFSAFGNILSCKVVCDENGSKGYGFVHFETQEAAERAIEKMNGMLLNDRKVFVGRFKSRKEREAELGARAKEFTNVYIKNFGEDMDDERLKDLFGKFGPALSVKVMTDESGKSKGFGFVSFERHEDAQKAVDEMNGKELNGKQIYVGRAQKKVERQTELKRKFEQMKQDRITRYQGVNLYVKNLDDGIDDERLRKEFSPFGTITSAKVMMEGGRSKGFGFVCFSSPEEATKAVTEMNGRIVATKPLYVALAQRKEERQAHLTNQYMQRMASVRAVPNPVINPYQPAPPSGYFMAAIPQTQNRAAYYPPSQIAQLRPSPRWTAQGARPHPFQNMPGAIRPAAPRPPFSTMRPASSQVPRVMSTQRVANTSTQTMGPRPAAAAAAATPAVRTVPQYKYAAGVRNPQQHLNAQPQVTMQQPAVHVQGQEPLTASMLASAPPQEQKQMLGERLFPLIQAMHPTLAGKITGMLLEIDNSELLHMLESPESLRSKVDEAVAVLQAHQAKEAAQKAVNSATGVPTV
Chain of Ras and Rab interactor 1/Tyrosine-protein kinase ABL1 (P00519 whole entry): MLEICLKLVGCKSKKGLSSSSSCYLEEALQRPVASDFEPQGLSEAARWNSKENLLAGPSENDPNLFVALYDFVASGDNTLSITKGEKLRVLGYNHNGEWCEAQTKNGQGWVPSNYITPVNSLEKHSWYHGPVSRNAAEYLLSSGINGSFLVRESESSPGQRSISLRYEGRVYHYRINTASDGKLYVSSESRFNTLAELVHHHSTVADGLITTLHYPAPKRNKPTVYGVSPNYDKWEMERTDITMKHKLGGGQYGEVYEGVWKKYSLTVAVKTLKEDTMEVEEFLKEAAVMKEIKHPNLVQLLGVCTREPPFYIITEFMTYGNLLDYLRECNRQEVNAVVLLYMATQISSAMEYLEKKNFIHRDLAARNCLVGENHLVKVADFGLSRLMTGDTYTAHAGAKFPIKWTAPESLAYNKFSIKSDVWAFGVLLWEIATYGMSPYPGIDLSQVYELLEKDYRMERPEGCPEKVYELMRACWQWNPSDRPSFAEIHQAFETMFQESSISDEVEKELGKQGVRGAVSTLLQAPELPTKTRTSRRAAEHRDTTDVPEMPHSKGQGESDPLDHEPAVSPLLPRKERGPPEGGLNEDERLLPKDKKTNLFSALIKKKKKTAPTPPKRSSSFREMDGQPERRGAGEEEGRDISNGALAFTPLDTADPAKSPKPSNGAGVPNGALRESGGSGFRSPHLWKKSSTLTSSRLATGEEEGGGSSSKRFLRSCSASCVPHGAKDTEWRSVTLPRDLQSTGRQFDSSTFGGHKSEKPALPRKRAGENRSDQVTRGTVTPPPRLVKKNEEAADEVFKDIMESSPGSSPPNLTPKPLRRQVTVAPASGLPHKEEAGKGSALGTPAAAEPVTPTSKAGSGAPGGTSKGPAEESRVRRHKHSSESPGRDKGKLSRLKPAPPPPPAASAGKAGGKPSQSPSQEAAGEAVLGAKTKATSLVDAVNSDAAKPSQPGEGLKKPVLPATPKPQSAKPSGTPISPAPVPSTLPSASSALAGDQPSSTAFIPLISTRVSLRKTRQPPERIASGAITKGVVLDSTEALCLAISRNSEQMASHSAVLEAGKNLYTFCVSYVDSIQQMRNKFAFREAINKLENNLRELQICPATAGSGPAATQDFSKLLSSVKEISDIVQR
Chain of Ras and Rab interactor 1/Tyrosine-protein kinase ABL1 (Q13671 whole entry): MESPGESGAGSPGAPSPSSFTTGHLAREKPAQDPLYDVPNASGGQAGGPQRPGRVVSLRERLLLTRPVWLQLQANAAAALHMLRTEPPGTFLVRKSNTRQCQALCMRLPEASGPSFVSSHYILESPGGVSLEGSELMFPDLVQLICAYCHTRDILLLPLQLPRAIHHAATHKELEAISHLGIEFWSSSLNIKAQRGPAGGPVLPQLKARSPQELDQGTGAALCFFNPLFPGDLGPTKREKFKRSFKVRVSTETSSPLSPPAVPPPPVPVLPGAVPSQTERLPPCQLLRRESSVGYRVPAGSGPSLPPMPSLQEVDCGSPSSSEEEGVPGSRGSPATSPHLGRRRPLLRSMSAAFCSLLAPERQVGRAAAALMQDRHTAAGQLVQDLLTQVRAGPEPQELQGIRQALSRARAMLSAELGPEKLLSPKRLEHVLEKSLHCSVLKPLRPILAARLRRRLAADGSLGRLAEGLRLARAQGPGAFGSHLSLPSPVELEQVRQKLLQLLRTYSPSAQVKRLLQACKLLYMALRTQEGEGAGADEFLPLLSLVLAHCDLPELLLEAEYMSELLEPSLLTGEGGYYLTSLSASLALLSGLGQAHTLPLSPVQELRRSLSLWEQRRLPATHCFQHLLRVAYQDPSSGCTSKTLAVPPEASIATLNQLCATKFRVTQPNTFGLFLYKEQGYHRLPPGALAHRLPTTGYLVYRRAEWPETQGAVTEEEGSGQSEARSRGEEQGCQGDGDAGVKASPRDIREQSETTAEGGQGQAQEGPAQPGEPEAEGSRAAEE
Chain of Nonstructural protein 1 (Q194T2 whole entry): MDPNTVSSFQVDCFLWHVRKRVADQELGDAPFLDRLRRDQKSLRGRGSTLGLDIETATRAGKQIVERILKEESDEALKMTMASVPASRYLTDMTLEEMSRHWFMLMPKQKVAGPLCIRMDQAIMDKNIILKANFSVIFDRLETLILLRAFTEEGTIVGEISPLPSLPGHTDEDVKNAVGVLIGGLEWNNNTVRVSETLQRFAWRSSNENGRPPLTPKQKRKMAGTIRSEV
Chain of Paired box protein Pax-8 (Q06710 whole entry): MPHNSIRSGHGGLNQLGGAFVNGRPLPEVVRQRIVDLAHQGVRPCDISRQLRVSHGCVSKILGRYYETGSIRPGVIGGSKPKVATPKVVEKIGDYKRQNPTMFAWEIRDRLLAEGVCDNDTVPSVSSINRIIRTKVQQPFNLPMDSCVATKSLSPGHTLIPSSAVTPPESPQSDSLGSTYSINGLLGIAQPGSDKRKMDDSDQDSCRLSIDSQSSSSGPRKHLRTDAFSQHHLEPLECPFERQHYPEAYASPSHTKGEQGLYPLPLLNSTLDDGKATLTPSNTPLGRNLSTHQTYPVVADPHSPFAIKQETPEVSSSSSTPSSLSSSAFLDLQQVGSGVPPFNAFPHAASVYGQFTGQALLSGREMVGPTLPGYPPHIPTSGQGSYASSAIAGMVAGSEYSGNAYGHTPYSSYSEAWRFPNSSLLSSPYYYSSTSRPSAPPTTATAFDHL
Chain of Cytochrome P450 2D6 (P10635 whole entry): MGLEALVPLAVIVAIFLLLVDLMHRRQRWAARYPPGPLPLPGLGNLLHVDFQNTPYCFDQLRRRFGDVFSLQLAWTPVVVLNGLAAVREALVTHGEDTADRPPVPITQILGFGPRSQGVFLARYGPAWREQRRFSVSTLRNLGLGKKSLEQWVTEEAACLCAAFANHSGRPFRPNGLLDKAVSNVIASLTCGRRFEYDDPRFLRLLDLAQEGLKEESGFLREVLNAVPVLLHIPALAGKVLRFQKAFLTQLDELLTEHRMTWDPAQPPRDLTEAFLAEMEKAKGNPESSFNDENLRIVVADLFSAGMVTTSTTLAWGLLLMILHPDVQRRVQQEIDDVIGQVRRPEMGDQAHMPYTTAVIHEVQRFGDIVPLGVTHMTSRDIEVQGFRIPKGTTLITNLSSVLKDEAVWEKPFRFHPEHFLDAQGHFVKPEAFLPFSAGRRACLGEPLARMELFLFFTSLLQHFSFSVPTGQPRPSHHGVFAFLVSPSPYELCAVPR

COc1ccc(NC(=S)NC2CCS(=O)(=O)C2)cc1 (stereo unspecified)
IC50 [1]: > 64 µM (inactive)

CCN(CC)CC[n+]1ccc2c(C)c3[nH]c4ccccc4c3c(C)c2c1
GI50 [2]: 19.1 µM (inactive)
GI50 [3]: 0.124 µM (active)
AC50 [4]: 3.16 µM (inconclusive)

COc1ccc(CN(C)CCCn2ccc(NC(=O)OCc3ccccc3)nc2=O)cc1OC
IC50 [5]: 23.5 µM (inactive)

O=C(O)CCCN1C(=O)C(O)=C(C(=O)c2ccc(Cl)cc2)C1c1ccccc1 (stereo unspecified)
IC50 [6]: > 66 µM (inactive)
IC50 [7]: > 66 µM (inactive)

Cc1ccc(-n2c(Cc3cccn3C)nnc2SCC(=O)NCc2ccc3c(c2)OCO3)cc1
EC50 [8]: 1.31 µM (active)

Nc1cc(Nc2ccc(Br)cc2)nc(N)n1
EC50 [9]: > 120 µM (not active)
EC50 [10]: 17.4 µM (active)
EC50 [11]: 11.3 µM (active)
IC50 [6]: > 66 µM (inactive)
IC50 [7]: 55.4 µM (inactive)

Cc1noc(C(=O)Nc2sc3c(c2C#N)CCC3)c1Cl
EC50 [12]: > 350 µM (not active)
EC50 [13]: 57 µM (active)
IC50 [14]: 47.5 µM (inactive)

COc1ccc(NC(=O)c2ccc(Cl)c(S(=O)(=O)N3CCc4ccccc4C3)c2)cn1
CC50 [15]: > 40 µM (active)
AC50 [16]: 1.95 µM (active)
AC50 [17]: 19.4 µM (active)

Cc1c(NC(=O)c2cc(CC(C)C)on2)c(=O)n(-c2ccccc2)n1C
IC50 [1]: > 64 µM (inactive)

CCSc1nc2cc(S(=O)(=O)N3CCOCC3)ccc2o1
IC50 [14]: > 80 µM (inactive)

COc1cccc2c(S)c(CCC(C)=O)c(C)nc12
IC50 [18]: < 0.4 µM (active)

CC(=O)NC(c1ccco1)c1ccc2cccnc2c1O (stereo unspecified)
EC50 [19]: > 20 µM (inactive)
IC50 [20]: > 20 µM (inactive)
IC50 [21]: > 20 µM (inactive)
IC50 [22]: > 20 µM (inactive)
IC50 [23]: 12.5 µM (active)

CCCCN1C(=O)NC2NC(=O)NC21 (stereo unspecified)
IC50 [23]: > 100 µM (active)
IC50 [5]: 0.905 µM (active)

Oc1nncc(N/N=C/C=C/c2ccccc2)n1
AC50 [24]: 7.38 µM (active)
IC50 [25]: > 47.1 µM (inactive)
EC50 [26]: > 53 µM (inactive)

Cc1ccc(S(=O)(=O)N(C)C[C@@H]2Oc3ncc(-c4cc5ccccc5o4)cc3C(=O)N([C@H](C)CO)C[C@@H]2C)cc1
AC50 [27]: 17.3 µM (active)
AC50 [17]: 36.2 µM (active)

Cc1ccc(N2C(S)=NC3c4cc(Cl)ccc4OC2(C)C3C(=O)N(C)C)cc1 (stereo unspecified)
IC50 [6]: > 66 µM (inactive)
IC50 [7]: > 66 µM (inactive)

CN(CCC(=O)c1ccccc1)CCC(=O)c1ccccc1
IC50 [6]: > 66 µM (inactive)
IC50 [7]: > 66 µM (inactive)

COc1ccccc1CN(C)C(=O)CN1CCN(C(=O)c2cccs2)CC1
AC50 [16]: 32.8 µM (active)

CS(=O)(=O)N(CC(=O)N1CCN(c2ccccc2)CC1)c1ccc(Cl)c(C(F)(F)F)c1
EC50 [8]: 5.13 µM (active)

Cc1nn(Cc2ccccc2)c(C)c1NC(=O)c1cc(-c2cccs2)on1
EC50 [8]: 2.71 µM (active)

CCOC(=O)c1cc(Cl)ccc1OC(N)=O
GI50 [3]: > 100 µM (inactive)

COc1ccc(NS(=O)(=O)c2ccc(NC(=O)C(CCSC)NC(N)=O)cc2)cc1 (stereo unspecified)
AC50 [28]: > 70 µM (inactive)
AC50 [29]: 26.9 µM (active)

NC(=O)c1nn(CC(=O)Nc2ccc3c(c2)OCO3)cc1[N+](=O)[O-]
IC50 [18]: 15.3 µM (not active)

CN(C)c1ccc(CC(=O)c2nc3ccccc3s2)cc1
IC50 [18]: 2.73 µM (active)

Cc1ccc(CNC(=O)Cn2cccc2C(=O)c2ccccc2)cc1
EC50 [8]: 3.77 µM (active)

COc1ccc(OCC(=O)Nc2nnc(-c3ccco3)s2)cc1
IC50 [18]: 2.82 µM (active)

C=C1CC2CC[C@@]34C[C@H]5O[C@@H]6C(O[C@H]7CC[C@H](CC(=O)OC8[C@H](C)C9OC%10C[C@]%11(C[C@@H]%12O[C@]%13(C[C@H](C)[C@@H]%14O[C@H]([C@H](O)C[C@H](O)CO)C[C@@H]%14O%13)C[C@H](C)[C@@H]%12O%11)OC%10CC9O[C@H]8C[C@H]8O[C@H](CC[C@@H]1O2)C[C@@H](C)C8=C)O[C@H]7[C@@H]6O3)[C@@H]5O4 (stereo partly specified)
GI50 ([2]; Mus musculus, P388/ADR): 0.000255 µM (active)

[O-][N+](=Cc1ccccc1)c1ccc(Cl)cc1
IC50 [14]: 57 µM (inactive)

COc1ccc(N2CCN(C(=O)CCNC(=O)Cn3ccc4ccccc4c3=O)CC2)cc1
IC50 [1]: 50 µM (inactive)
AC50 [30]: 8.16 µM (active)

Cc1ccc(S(=O)(=O)Nc2ccc3c(c2)C(=O)N([C@@H](C)CO)C[C@H](C)[C@@H](CN(C)Cc2ccc(Cl)c(Cl)c2)OCCCC[C@@H](C)O3)cc1
AC50 [31]: 5.22 µM (active)
AC50 [32]: > 70 µM (inactive)

CCc1ccc(OS(=O)(=O)c2cn(C)c(=O)n(C)c2=O)cc1
IC50 [6]: > 66 µM (inactive)
IC50 [7]: > 66 µM (inactive)

COC(=O)c1scc(C#N)c1N/N=C(\C#N)S(=O)(=O)c1ccc(Cl)cc1
EC50 [19]: 6.08 µM (active)
IC50 [20]: > 20 µM (inactive)
IC50 [21]: > 20 µM (inactive)
IC50 [22]: 18.8 µM (inactive)

COc1ccccc1N(C(=O)c1snc(C(N)=O)c1N)C(C(=O)NCc1ccccc1)c1ccc(O)cc1 (stereo unspecified)
IC50 [5]: 50 µM (inactive)
